Measured values as given in patent publication US20100113372A1, “Method For Preparing Kaempferol-3-0-Rutinoside and Composition of Skin External Application Comprising Thereof” (Amorepacific Corporation, priority 2006, published 2010).

Legend:
collagenase = experiment: Inhibitory effect of collagenase expression (collagenase immunoassay of fibroblast culture media); format: cell-based; conditions: human fibroblasts; for Degree of collagenase expression (%): serum-free DMEM, 1×10^4M for 24 hours, untreated group = 100
Procedure: The effect of inhibiting collagenase expression achieved by kaempferol-3-O-rutinoside obtained from Examples 3 and 4 is measured and compared with that achieved by tocopherol and EGCG. Tocopherol and EGCG are anti-oxidation materials that regenerate an epidermal cell of skin and prevent skin aging.
(§1) Human fibroblasts were inserted in a 96-well microtiter plate containing the DMEM (Dulbecco's Modified Eagle's Media) media with 2.5% fetal bovine serum to a quantity of 5000 cells/well and cultured until the human fibroblasts grow by 90%, then cultured again in the serum-free DMEM media for 24 hours. The kaempferol-3-O-rutinoside of Examples 3 and 4, tocopherol and EGCG dissolved in the serum-free DMEM media were treated at a concentration of 1×10^4M for 24 hours, and the cell culture media was harvested.
The degree of collagenase generation of harvested cell culture media was measured using an instrument for measuring collagenase (Amershampharmacia Company). The harvested cell culture media was added in a 96-well plate coated uniformly with first collagenase antibody, and antigen-antibody reaction was conducted for 3 hours in a thermostat.
After 3 hours, second collagen antibody bonded with chromophore was added in the 96-well plate to react for 15 minutes. After 15 minutes, color developing material was inserted at room temperature for 15 minutes to induce color development, then 1M sulfuric acid was added to terminate the reaction (color development). The color of the reaction solution is yellow and the degree of yellow color can differ according to a degree of reaction progression.
Absorbance of the 96-well plate having the yellow color was measured through an absorbency measurement at 405 nm and a degree of synthesis was calculated by the following equation 1. In the calculation, an absorbance of cell culture media untreated with the material was used as a control group. That is, a degree of collagenase expression of an untreated group is 100, and a degree of collagenase expression of a group treated with the material as compared to that of the control group is obtained.

procollagen = experiment: Promoting effect of procollagen generation (procollagen type-1 C-peptide EIA kit); format: cell-based; conditions: human fibroblasts; for Degree of procollagen generation (%): serum-free DMEM, 1×10^−4M for 24 hours, untreated group = 100
Procedure: The promoting effect of procollagen generation achieved by kaempferol-3-O-rutinoside obtained from Examples 3 and 4 is measured and compared with that achieved by vitamin C. The procollagen is a material inducing collagen generation and is required to generate collagen and prevent aging. Vitamin C is known as an essential component for synthesis of collagen.
as §1, with “4,” for “4, tocopherol”, “vitamin C” for “EGCG”, “1×10^−4M” for “1×10^4M”, “harvested. After 24 hours, the amount of procollagen floating in the culture media was measured using procollagen type-1 C-peptide EIA kit (MK101, Takara, Japan).” for “harvested.”
In an untreated group, a degree of procollagen generation is 100. A degree of procollagen generation of a group treated with the material as compared to that of the control group is obtained.

With `CC1OC(OCC2OC(Oc3c(-c4ccc(O)cc4)oc4cc(O)cc(O)c4c3=O)C(O)C(O)C2O)C(O)C(O)C1O` (centres unmarked) [kaempferol-3-O-rutinoside] the “Effect on collagenase expression (in words)” value (collagenase; in vitro) was “inhibits the collagenase expression in vitro” and the “Effect on procollagen generation (in words)” value (procollagen; in vitro) was “promotes the procollagen generation in vitro”.

For `O=C1O[C@H]([C@@H](O)CO)C(O)=C1O` [Vitamin C, reference compound], the “Degree of procollagen generation (%)” value (procollagen) was 120%.

With `CC1OC(OCC2OC(Oc3c(-c4ccc(O)cc4)oc4cc(O)cc(O)c4c3=O)C(O)C(O)C2O)C(O)C(O)C1O` (centres unmarked) [Example 4-1, Kaempferol-3-O-rutinoside] the “Degree of collagenase expression (%)” value (collagenase) was 68% and the “Degree of procollagen generation (%)” value (procollagen) was 145%.

For `CC1OC(OCC2OC(Oc3c(-c4ccc(O)cc4)oc4cc(O)cc(O)c4c3=O)C(O)C(O)C2O)C(O)C(O)C1O` (centres unmarked) [Example 3-3, Kaempferol-3-O-rutinoside], the “Degree of collagenase expression (%)” value (collagenase) was 63% and the “Degree of procollagen generation (%)” value (procollagen) was 138%.

For `CC1OC(OCC2OC(Oc3c(-c4ccc(O)cc4)oc4cc(O)cc(O)c4c3=O)C(O)C(O)C2O)C(O)C(O)C1O` (centres unmarked) [Example 3-1, Kaempferol-3-O-rutinoside], the “Degree of collagenase expression (%)” value (collagenase) was 70% and the “Degree of procollagen generation (%)” value (procollagen) was 121%.

In the case of `CC1OC(OCC2OC(Oc3c(-c4ccc(O)cc4)oc4cc(O)cc(O)c4c3=O)C(O)C(O)C2O)C(O)C(O)C1O` (centres unmarked) [Example 4-3, Kaempferol-3-O-rutinoside], the “Degree of collagenase expression (%)” value (collagenase) is reported as 70% and the “Degree of procollagen generation (%)” value (procollagen) is reported as 122%.

With `CC1OC(OCC2OC(Oc3c(-c4ccc(O)cc4)oc4cc(O)cc(O)c4c3=O)C(O)C(O)C2O)C(O)C(O)C1O` (centres unmarked) [Example 4-2, Kaempferol-3-O-rutinoside] the “Degree of collagenase expression (%)” value (collagenase) was 73% and the “Degree of procollagen generation (%)” value (procollagen) was 123%.

With `CC1OC(OCC2OC(Oc3c(-c4ccc(O)cc4)oc4cc(O)cc(O)c4c3=O)C(O)C(O)C2O)C(O)C(O)C1O` (centres unmarked) [Example 3-2, Kaempferol-3-O-rutinoside] the “Degree of collagenase expression (%)” value (collagenase) was 71% and the “Degree of procollagen generation (%)” value (procollagen) was 118%.

`O=C(O[C@@H]1Cc2c(O)cc(O)cc2O[C@@H]1c1cc(O)c(O)c(O)c1)c1cc(O)c(O)c(O)c1` [EGCG, reference compound] was tested, and the “Degree of collagenase expression (%)” value (collagenase) was 60%.

Tocopherol [reference compound] was tested, and the “Degree of collagenase expression (%)” value (collagenase) was 75%.
